The values that follow come from PMC10569044, “Methylation and Demethylation of Emerging Contaminants Changed Bioaccumulation and Acute Toxicity in Daphnia magna” (Environmental Science & Technology, 2023).

Values after ≈ are worked out from the molar mass of the structure shown. Read-outs that look alike come from different tables or passages of the source.

For series [1], the system named is D. magna. The note with it: in vivo.
Series [2] has as its system D. magna. The note with it: for BCF in vivo (dynamic BCF): ku/kd; for ku (uptake rate constant): 24 h uptake phase; for BCF in vivo ratio / half-life in vivo ratio: methylated derivative over demethylated counterpart.
The conditions of series [3]: cited from earlier work; for logKow: measured values, ref PubChem; for pKa: measured value, ref CompTox Chemicals Dashboard.
Series [4] in a line: in vivo. The note with it: Daphnia magna. Here is the method:
Preliminary tests were conducted for each target compound at widely spaced concentrations to identify the concentration range for deriving an accurate dose–response curve. The stock solutions of individual test compounds were prepared in methanol and diluted with 10 mL of aerated AFW to different concentrations in 20 mL glass vials. The methanol volume was set to 100 μL in each vial as the solvent carrier, and a control group containing 100 μL of methanol without the target compound was used as the carrier solvent control. Each test included at least five concentration levels, and the concentrations of test compounds in the medium were experimentally measured (SI, Table S1). Each treatment included four replicates. […] The obtained dose–response data were fitted to the Boltzmann equation:[24] [drawing 1] 1 where C is the measured concentration of the test compound.

How the values of series [5] were obtained:
The pH of the test medium in this study was measured to be 8.50 ± 0.10. The neutral fraction (fn) of the target compounds, their pH-adjusted octanol–water coefficients (log Dow), and their pH-adjusted lipid–water coefficients (log Dlipw) were calculated for this pH condition (Table 1). The calculation and related details are given in the Supporting Information (SI) in Text S1. […]
Text 1. Calculation of physicochemical property parameters
The pH of the artificial freshwater environment for D. magna was measured as […]. The fraction of neutral species (f n) for the test compounds was calculated as the following equation:1–3 […]
where i is 1 for acids and -1 for bases. The pH-adjusted octanol-water coefficient log

Series [6] is described as follows: in vivo. The note with it: whole D. magna (wet weight), 1 mg L^–1, pH 8.5.
The subject of series [7] is D. magna. In words: Interconversion (methylation/demethylation) in D. magna.
The test system of the next series is H. azteca and G. pulex. The conditions noted are these: cited from earlier work.
Where [8] appears, read: pH 8.50, calculated, crosschecked with ChemAxon.
[9] abbreviates: after 2 h of exposure, 1 mg L^–1 nominal.
Setting [10] is: end of uptake phase, 24 h, 1 mg L^–1 nominal.

Regarding `COc1ccc2cc([C@H](C)C(=O)O)ccc2c1` [naproxen, reference compound], the “demethylation in D. magna (demethylated product in exposed D. magna)” value (“demethylation in D. magna” for short) with D. magna [1] is recorded as “evident”. Also, in the series on D. magna [2] (D. magna, 1 mg L^–1 nominal), the “BCF in vivo (dynamic BCF)” value is reported as 1.5 ± 0.6 L kg^–1, w.w.

By LC50 is commonly meant the concentration lethal to half of the exposed cells or organisms. As usually defined, the half-life is how long it takes for the measured level to halve. Lower therefore signals rapid decline. With `COc1ccc(NC(C)=O)cc1` [M-acetaminophen], the logKow in series [3] is 1.03. In addition, the “demethylation in D. magna” value in the series with D. magna [1] is recorded as “not detected”. In addition, the 50% lethal concentration (LC50) at 48 h in “in vivo [4]” was found to be 32.1 ± 5.7 µg/mL (≈ 194 µM). For the same molecule, in series [5] (pH 8.50, calculated), the “fn (neutral fraction)” value was 1 and the logDlipw was 1.45. The logDow in series [5] (setting [8]) is on record as 1.03. The same molecule showed a half-life in the series “in vivo [6]” of 24 min. In the series on D. magna [2] (D. magna, 1 mg L^–1 nominal), the “BCF in vivo (dynamic BCF)” value is recorded as 10.0 ± 0.0 L kg^–1, w.w. The “ku (uptake rate constant)” value in the series on D. magna [2] (D. magna) was determined as 17.3 ± 0.4 L/kg/h. For the same molecule, in the series on D. magna [2] (after 2 h of exposure), the “fold difference of concentration in D. magna vs acetaminophen” value is reported as 28 fold. Moreover, the “concentration in D. magna” value in the series with D. magna [2] (setting [9]) is 8730.7 ± 2900.9 ng g^–1 (w.w.). Also, in the series on D. magna [2], the “BCF in vivo ratio” value came out at 33.3 and the “half-life in vivo ratio” value was determined as 0.4. Besides, the “BCF in vivo ratio” value in the series on D. magna [2] (listed as methylated acetaminophen) is “about 33”.

`O=C1CN=C(c2ccccc2)c2cc(Cl)ccc2N1` [DM-diazepam, reference compound]: the “molar equivalent of demethylated TP in D. magna” value in the series with D. magna [7] (at the end of depuration) is 33.5%. Also, the “fn (neutral fraction)” value in series [5] (pH 8.50, calculated) is on record as 1. Moreover, in the series on D. magna [2] (D. magna, 1 mg L^–1 nominal), the “BCF in vivo (dynamic BCF)” value is reported as 9.8 ± 0.3 L kg^–1, w.w. In the series on D. magna [2] (D. magna), the “ku (uptake rate constant)” value came to 1.2 ± 0.1 L/kg/h.

`COC(=O)c1ccc(O)cc1` [methylparaben]: the “demethylation in D. magna” value with D. magna [1] is recorded as “evident”. Besides, the LC50 at 48 h in “in vivo [4]” worked out at 34.4 ± 4.3 µg/mL (≈ 226 µM). Besides, in series [5] (pH 8.50, calculated), the “fn (neutral fraction)” value is on record as 0.41 and the logDlipw is listed as 1.93. In series [5] (setting [8]), the logDow was 1.57. For the same molecule, the half-life in “in vivo [6]” is 162 min. Further, in the series on D. magna [2] (D. magna, 1 mg L^–1 nominal), the “BCF in vivo (dynamic BCF)” value is given as 2.8 ± 0.2 L kg^–1, w.w. In addition, the “ku (uptake rate constant)” value in the series with D. magna [2] (D. magna) was 0.7 ± 0.1 L/kg/h. Further, the “concentration in D. magna” value in the series on D. magna [2] (setting [10]) was 2216.3 ± 85.7 ng g^–1 (w.w.).

One may read the pKa as the negative logarithm of the acid dissociation constant. `O=C(O)c1ccc(O)cc1` [DM-methylparaben]: in series [3], the pKa is 4.54 and the logKow is listed as 1.58. Moreover, the “molar equivalent of demethylated TP relative to methylated parent in D. magna” value in the series on D. magna [1] (Daphnia magna, 12 h, pH 8.5) is reported as “about 2.0%”. In addition, in the series on D. magna [1] (Daphnia magna, 24 h, pH 8.5), the “molar equivalent of demethylated TP in D. magna” value was 54.8%. This molecule also had a median lethal concentration (LC50) at 48 h in the series “in vivo [4]” of 226 ± 17.3 µg/mL (≈ 1630 µM). The molecule also registered a logDow in series [5] (pH 8.5) of -2.38. For the same molecule, the “fn (neutral fraction)” value in series [5] (pH 8.50, calculated) is 0. The molecule further showed a half-life in the series “in vivo [6]” of 132 min. The “BCF in vivo (dynamic BCF)” value in the series with D. magna [2] (D. magna, 1 mg L^–1 nominal) is on record as 0.9 ± 0.5 L kg^–1, w.w. The “ku (uptake rate constant)” value with D. magna [2] (D. magna) turned out to be 0.3 ± 0.0 L/kg/h. For the same molecule, in the series on D. magna [2] (setting [10]), the “concentration in D. magna” value is recorded as 682.7 ± 91.5 ng g^–1 (w.w.). Moreover, in the series with D. magna [2], the “BCF in vivo ratio” value is reported as 1.0 and the “half-life in vivo ratio” value is reported as 1.0.

As to `CC(=O)Nc1ccc(O)cc1` [acetaminophen, reference compound], in series [3], the pKa was 9.38 and the logKow is recorded as 0.46. This molecule also displayed an LC50 at 48 h in the series “in vivo [4]” (other: waterborne exposure in the test medium) of 21.2 ± 2.4 µg/mL (≈ 140 µM). In addition, in series [5] (pH 8.5), the logDlipw was 0.89 and the logDow was determined as 0.41. The “fn (neutral fraction)” value in series [5] (pH 8.50, calculated) is on record as 0.9. Further, the half-life in “in vivo [6]” was 60 min. Besides, the “BCF in vivo (dynamic BCF)” value in the series on D. magna [2] (D. magna, 1 mg L^–1 nominal) is reported as 0.3 ± 0.0 L kg^–1, w.w. For the same molecule, in the series with D. magna [2] (D. magna), the “ku (uptake rate constant)” value came out at 0.2 ± 0.0 L/kg/h. Besides, the “rise of BCF after methylation” value in the series with D. magna [2] (D. magna, in vivo) is “approximately 33 fold”. In the series with D. magna [2] (setting [9]), the “concentration in D. magna” value was 308.7 ± 42.6 ng g^–1 (w.w.). In the series with D. magna [2], the “BCF in vivo ratio” value amounted to 1.0 and the “half-life in vivo ratio” value is given as 1.0.

Take `C[C@H](C(=O)O)c1ccc2cc(O)ccc2c1` [DM-naproxen]: the “formation rate of demethylated TP” value with D. magna [1] (Daphnia magna, pH 8.5) came to 1.5 ± 0.3 nmol g^–1 h^–1. In the series “in vivo [4]”, this molecule showed an LC50 at 48 h of 67.9 ± 6 µg/mL (≈ 314 µM). In addition, in series [5] (pH 8.50, calculated), the “fn (neutral fraction)” value is 0 and the logDlipw is given as −0.67. Also, in series [5] (setting [8]), the logDow is listed as -1.32. In addition, in series [5] (pH 8.50, calculated, listed as DM-Naproxen), the logDlipw is listed as -0.67. In the series on D. magna [2] (D. magna, 1 mg L^–1 nominal), the “BCF in vivo (dynamic BCF)” value is recorded as 0 L kg^–1, w.w. For the same molecule, the “level in D. magna” value with D. magna [2] (bioaccumulation experiment, 1 mg L^–1 nominal) is listed as “below the LOD”.

Take `CN1C(=O)CN=C(c2ccccc2)c2cc(Cl)ccc21` [diazepam, reference compound]: the logKow in series [3] is reported as 2.82. Besides, the “demethylation in D. magna” value in the series on D. magna [7] (exposure to individual methylated compound) is listed as “evident”. Moreover, the “fn (neutral fraction)” value in series [5] (pH 8.50, calculated) was 1. The “BCF in vivo (dynamic BCF)” value in the series on D. magna [2] (D. magna, 1 mg L^–1 nominal) is 9.0 ± 0.4 L kg^–1, w.w.

`COC(=O)Cc1ccccc1Nc1c(Cl)cccc1Cl` [methylated diclofenac]: the “bioaccumulation relative to diclofenac” value in the series with H. azteca and G. pulex is on record as 25–110 fold.
